Patent publication US9695155B2, “Herbicidal substituted pyrimidinyloxy benzene compounds” (E. I. DU PONT DE NEMOURS AND COMPANY, priority 2013, dated 2017)

How the values were obtained:
morningglory [1] = test: Test A preemergence; format: in vivo, Ipomoea spp.; conditions: for Morningglory plant response rating (0 to 100 scale): 125 g ai/ha; for Morningglory plant response rating: 500 g ai/ha, 0 to 100 scale where 0 is no effect and 100 is complete control
Procedure, shortened: (§1)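 Greenhouse pot test, loam/sand soil. Formulation: non-phytotoxic solvent mix plus surfactant. Pre: directed spray onto soil after sowing. Post: plants at 1–2 leaf, 2–10 cm. Rated visually vs untreated controls at ~10 d, 0 (no effect) to 100 (complete control).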

large (Lg) crabgrass [2] = test: Test A preemergence; format: in vivo, Digitaria sanguinalis; conditions: for Crabgrass, Large plant response rating (0 to 100 scale): 125 g ai/ha; for Crabgrass, Large plant response rating: 500 g ai/ha, 0 to 100 scale where 0 is no effect and 100 is complete control
Procedure, shortened: as §1

morningglory [3] = test: Test A postemergence; format: in vivo, Ipomoea spp.; conditions: 0 to 100 scale where 0 is no effect and 100 is complete control; for Morningglory plant response rating: 125 g ai/ha; for Plant response rating, Morningglory: 500 g ai/ha
Procedure, shortened: as §1

barnyardgrass [4] = test: Test A preemergence; format: in vivo, Echinochloa crus-galli; conditions: for Barnyardgrass plant response rating (0 to 100 scale, 0 is no effect, 100 is complete control): 125 g ai/ha; for Barnyardgrass plant response rating: 500 g ai/ha, 0 to 100 scale where 0 is no effect and 100 is complete control
Procedure, shortened: as §1

velvetleaf [5] = test: Test A postemergence; format: in vivo, Abutilon theophrasti; conditions: 0 to 100 scale where 0 is no effect and 100 is complete control; for Velvetleaf plant response rating: 125 g ai/ha; for Plant response rating, Velvetleaf: 500 g ai/ha
Procedure, shortened: as §1

wheat [6] = test: Test A preemergence; format: in vivo, Triticum aestivum; conditions: for Wheat plant response rating (0 to 100 scale): 125 g ai/ha; for Wheat plant response rating: 500 g ai/ha, 0 to 100 scale where 0 is no effect and 100 is complete control
Procedure, shortened: as §1

rice = test: Test B flooded paddy test; format: in vivo, Oryza sativa; conditions: Flood, 250 g ai/ha; 0 to 100 scale where 0 is no effect and 100 is complete control
Procedure, shortened: (§2)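 Post-emergence paddy-water application at the 2-leaf stage, with 3 cm flood kept for the whole test. Response was judged visually relative to controls after 13 to 15 greenhouse days, 0 indicating no effect and 100 complete control.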

wheat [7] = test: Test A postemergence; format: in vivo, Triticum aestivum; conditions: 0 to 100 scale where 0 is no effect and 100 is complete control; for Wheat plant response rating: 125 g ai/ha; for Plant response rating, Wheat: 500 g ai/ha
Procedure, shortened: as §1

sedge, umbrella = test: Test B flooded paddy test; format: in vivo, Cyperus difformis; conditions: Flood, 250 g ai/ha; 0 to 100 scale where 0 is no effect and 100 is complete control
Procedure, shortened: as §2

giant foxtail [8] = test: Test A preemergence; format: in vivo, Setaria faberii; conditions: for Foxtail, Giant plant response rating (0 to 100 scale): 125 g ai/ha; for Foxtail, Giant plant response rating: 500 g ai/ha, 0 to 100 scale where 0 is no effect and 100 is complete control
Procedure, shortened: as §1

corn [9] = test: Test A postemergence; format: in vivo, Zea mays; conditions: 0 to 100 scale where 0 is no effect and 100 is complete control; for Corn plant response rating: 125 g ai/ha; for Plant response rating, Corn: 500 g ai/ha
Procedure, shortened: as §1

large (Lg) crabgrass [10] = test: Test A postemergence; format: in vivo, Digitaria sanguinalis; conditions: 0 to 100 scale where 0 is no effect and 100 is complete control; for Crabgrass, Large plant response rating: 125 g ai/ha; for Plant response rating, Crabgrass, Large: 500 g ai/ha
Procedure, shortened: as §1

velvetleaf [11] = test: Test A preemergence; format: in vivo, Abutilon theophrasti; conditions: for Velvetleaf plant response rating (0 to 100 scale): 125 g ai/ha; for Velvetleaf plant response rating: 500 g ai/ha, 0 to 100 scale where 0 is no effect and 100 is complete control
Procedure, shortened: as §1

corn [12] = test: Test A preemergence; format: in vivo, Zea mays; conditions: for Corn plant response rating (0 to 100 scale): 125 g ai/ha; for Corn plant response rating: 500 g ai/ha, 0 to 100 scale where 0 is no effect and 100 is complete control
Procedure, shortened: as §1

barnyardgrass [13] = test: Test B flooded paddy test; format: in vivo, Echinochloa crus-galli; conditions: Flood, 250 g ai/ha; 0 to 100 scale where 0 is no effect and 100 is complete control
Procedure, shortened: as §2

pigweed [14] = test: Test A postemergence; format: in vivo, Amaranthus retroflexus; conditions: 0 to 100 scale where 0 is no effect and 100 is complete control; for Pigweed plant response rating: 125 g ai/ha; for Plant response rating, Pigweed: 500 g ai/ha
Procedure, shortened: as §1

Heteranthera limosa = test: Test B flooded paddy test; format: in vivo; conditions: Flood, 250 g ai/ha; 0 to 100 scale where 0 is no effect and 100 is complete control
Procedure, shortened: as §2

barnyardgrass [15] = test: Test A postemergence; format: in vivo, Echinochloa crus-galli; conditions: 0 to 100 scale where 0 is no effect and 100 is complete control; for Barnyardgrass plant response rating: 125 g ai/ha; for Plant response rating, Barnyardgrass: 500 g ai/ha
Procedure, shortened: as §1

giant foxtail [16] = test: Test A postemergence; format: in vivo, Setaria faberii; conditions: 0 to 100 scale where 0 is no effect and 100 is complete control; for Foxtail, Giant plant response rating: 125 g ai/ha; for Plant response rating, Foxtail, Giant: 500 g ai/ha
Procedure, shortened: as §1

pigweed [17] = test: Test A preemergence; format: in vivo, Amaranthus retroflexus; conditions: for Pigweed plant response rating (0 to 100 scale): 125 g ai/ha; for Pigweed plant response rating: 500 g ai/ha, 0 to 100 scale where 0 is no effect and 100 is complete control
Procedure, shortened: as §1

Row | Compound | Morningglory plant response rating (0 to 100 scale) (morningglory [1]) | Morningglory plant response rating (morningglory [1]) | Crabgrass, Large plant response rating (0 to 100 scale) (large (Lg) crabgrass [2]) | Crabgrass, Large plant response rating (large (Lg) crabgrass [2]) | Morningglory plant response rating (morningglory [3]) | Plant response rating, Morningglory (morningglory [3]) | Barnyardgrass plant response rating (0 to 100 scale, 0 is no effect, 100 is complete control) (barnyardgrass [4]) | Barnyardgrass plant response rating (barnyardgrass [4]) | Velvetleaf plant response rating (velvetleaf [5]) | Plant response rating, Velvetleaf (velvetleaf [5]) | Wheat plant response rating (0 to 100 scale) (wheat [6]) | Wheat plant response rating (wheat [6]) | Plant response rating, Rice (rice) | Wheat plant response rating (wheat [7]) | Plant response rating, Wheat (wheat [7]) | Plant response rating, Sedge, Umbrella (sedge, umbrella) | Foxtail, Giant plant response rating (0 to 100 scale) (giant foxtail [8]) | Foxtail, Giant plant response rating (giant foxtail [8]) | Corn plant response rating (corn [9]) | Plant response rating, Corn (corn [9]) | other results
1 | FC(F)c1cccc(Oc2ncc(Br)cn2)c1-n1cc(Cl)cn1 [Compound 210] | 0 | 0 | 100 | 100 | 20 | 30 | 10 | 70 | 60 | 80 | 0 | 0 | 15 | 0 | 0 | 60 | 100 | 100 | 10 | 30 | Crabgrass, Large plant response rating (large (Lg) crabgrass [10]): 40; Plant response rating, Crabgrass, Large (large (Lg) crabgrass [10]): 70; Velvetleaf plant response rating (0 to 100 scale) (velvetleaf [11]): 20; Velvetleaf plant response rating (velvetleaf [11]): 60; Corn plant response rating (0 to 100 scale) (corn [12]): 0; Corn plant response rating (corn [12]): 0; Plant response rating, Barnyardgrass (barnyardgrass [13]): 0; Pigweed plant response rating (pigweed [14]): 100; Plant response rating, Pigweed (pigweed [14]): 100; Plant response rating, Ducksalad (Heteranthera limosa): 75; Barnyardgrass plant response rating (barnyardgrass [15]): 20; Plant response rating, Barnyardgrass (barnyardgrass [15]): 40; Foxtail, Giant plant response rating (giant foxtail [16]): 30; Plant response rating, Foxtail, Giant (giant foxtail [16]): 60; Pigweed plant response rating (0 to 100 scale) (pigweed [17]): 100; Pigweed plant response rating (pigweed [17]): 100
2 | C#Cc1cccc(Oc2ncc(Cl)cn2)c1-n1cc(Br)cn1 [Compound 199] | 0 | 20 | 100 | 100 | 40 | 60 | 20 | 80 | 70 | 100 | 0 | 0 | 20 | 0 | 30 | 70 | 90 | 100 | 20 | 60 | Crabgrass, Large plant response rating (large (Lg) crabgrass [10]): 40; Plant response rating, Crabgrass, Large (large (Lg) crabgrass [10]): 90; Velvetleaf plant response rating (0 to 100 scale) (velvetleaf [11]): 20; Velvetleaf plant response rating (velvetleaf [11]): 90; Corn plant response rating (0 to 100 scale) (corn [12]): 0; Corn plant response rating (corn [12]): 0; Plant response rating, Barnyardgrass (barnyardgrass [13]): 0; Pigweed plant response rating (pigweed [14]): 80; Plant response rating, Pigweed (pigweed [14]): 100; Plant response rating, Ducksalad (Heteranthera limosa): 70; Barnyardgrass plant response rating (barnyardgrass [15]): 30; Plant response rating, Barnyardgrass (barnyardgrass [15]): 80; Foxtail, Giant plant response rating (giant foxtail [16]): 70; Plant response rating, Foxtail, Giant (giant foxtail [16]): 90; Pigweed plant response rating (0 to 100 scale) (pigweed [17]): 90; Pigweed plant response rating (pigweed [17]): 100
